How the values were obtained:
[1] = test system: final instar larvae of the diamondback moth (Plutella xylostella); assay: Repellent and emergence-inhibition effect on the final instar larvae of diamondback moths; type: in vivo; set-up: key to Extent of ingestion: -: no ingestion; ±: very little ingestion; +: some ingestion; ++: considerable ingestion; conditions: 72 hours; for pest or weed control at 500 ppm: Plutella xylostella, read-out: Emergence-inhibition rate (%); for Extent of ingestion: radish leaves dipped in 500 ppm
From the text: (§1) In the following Examples, wettable powders prepared according to the procedures of Example 4 were used, each powder containing 50% by weight of the active compound of this invention.
Leaves of the Japanese radish (Raphanus sativus) were dipped for 30 seconds into a liquid containing 500 ppm of one of the compounds shown in Table 9. After air-drying the leaves, each leaf was placed into a plastic icecream cup (diameter 8 cm) and 15 final instar larvae of the diamondback moth (Plutella xylostella) were placed into each cup. Each test was conducted in duplicate and the results were averaged.

guppies = assay: Toxicity to guppies; type: in vivo; conditions: LC50 after 48 hours classified
Protocol: In this example the toxicity of the compounds of the invention towards guppies was estimated and is compared with that of corresponding compounds as disclosed and claimed in our co-pending U.S. Application No. 910,117 filed May 30, 1978. The LC50 was determined after 48 hours and the toxicity to guppies was classified into the rankings (i), (ii) and (iii) according to the following classification scheme: […]

Sphaerotheca fuliginea = assay: Effect on powdery mildew in cucumbers; type: in vivo; conditions: cucumber powdery mildew; 500 ppm; 10 days
Protocol: as §1
Cucumber seedlings (variety Sagamihanshiro), planted two per 12 cm diameter pot, were used as host plants at the stage when the first leaf was fully grown and open. Each test group of three pots was treated with one of the active compounds shown in Table 5 by spraying an aqueous suspension containing 500 ppm of the active compound onto the plants at the rate of 20 ml per 3 pots. After air-drying the plants, the host plants were inoculated with the microorganism Sphaerotheca fuliginea by brushing already infected cucumber leaves with a small brush and letting the microorganism fall onto the host plants. The inoculated plants were kept in a greenhouse at 24°-26° C. for 10 days. At the end of this time, the percentage diseased area was measured.

cockroach larvae = conditions: 24 hours; 25° C.
[2] = test system: third instar larvae of the tobacco cutworm; assay: Repellent action against the third instar larvae of the tobacco cutworm; type: in vivo; conditions: cabbage leaves dipped in 500 ppm, 72 hours
From the text: as §1
Cabbage leaves were dipped for 30 seconds in an aqueous suspension containing 500 ppm of one of the active compounds shown in Table 6. After air-drying, each leaf was placed into a plastic receptacle having a diameter of 8 cm and the third instar larvae (10 per receptacle) of the tobacco cutworm were released onto the leaves. After 72 hours, the extent of ingestion of the leaves was measured, using two receptacles for each test compound. The results are shown in Table 6, using the following notation (which is also employed, with the same meaning, in following Table 9): […]

Phytophthora infestans = type: in vivo; conditions: tomato late blight; 500 ppm; after 5 days; average per leaf

## CC(C)c1ccccc1OCCN(c1ncnc2ccccc12)C(C)C [compound 29, 4-{N-isopropyl-N-[2-(2-isopropylphenoxy)ethyl]amino}quinazoline]
[1]
  pest or weed control at 500 ppm: 60%
  Extent of ingestion: ± to +

## Cc1ccc(OCCNc2ncnc3ccccc23)c(C)c1 [Compound C, 4-{N-[2-(2,4-dimethylphenoxy)ethyl]amino}quinazoline, reference compound]
guppies
  Toxicity ranking: iii (all fish dead at 0.5 ppm)

## CCCN(CCOc1cc(C(C)C)ccc1C)c1ncnc2ccccc12 [compound 48, 4-{N-[2-(5-isopropyl-2-methylphenoxy)ethyl]-N-propylamino}quinazoline]
Sphaerotheca fuliginea
  Diseased area (%): 0%

## Cc1cccc(OCCN(C)c2ncnc3ccccc23)c1 [compound 20, 4-{N-methyl-N-[2-(3-methylphenoxy)ethyl]amino}quinazoline]
Cockroach larvae
  Mortality rate (%), 0.5mg test cpd/10 cockroaches/bottle: 90%
  Mortality rate (%), 1mg test cpd/10 cockroaches/bottle: 100%

## Cc1ccc(OCCN(c2ncnc3ccccc23)C2CCCCC2)c(C)c1 [compound 37, 4-{N-cyclohexyl-N-[2-(2,4-dimethylphenoxy)ethyl]amino}quinazoline]
[1]
  pest or weed control at 500 ppm: 60%
  Extent of ingestion: ± to +

## CCCCN(CCOc1ccc(Cl)cc1C)c1ncnc2ccccc12 [compound 41, 4-{N-butyl-N-[2-(4-chloro-2-methylphenoxy)ethyl]amino}quinazoline]
Cockroach larvae
  Mortality rate (%), 0.5mg test cpd/10 cockroaches/bottle: 85%
  Mortality rate (%), 1mg test cpd/10 cockroaches/bottle: 100%
[2]
  Extent of ingestion: ± to +
[1]
  pest or weed control at 500 ppm: 90%
  Extent of ingestion: ±

## CN(CCOc1ccccc1)c1ncnc2ccccc12 [Compound No. 4, 4-[N-methyl-N-(2-phenoxyethyl)amino]quinazoline]
Cockroach larvae
  Mortality rate (%), 0.5mg test cpd/10 cockroaches/bottle: 85%
  Mortality rate (%), 1mg test cpd/10 cockroaches/bottle: 100%

## CC(C)c1ccccc1OCCNc1ncnc2ccccc12 [Compound B, 4-{N-[2-(2-isopropylphenoxy)ethyl]amino}quinazoline, reference compound]
guppies
  Toxicity ranking: iii (all fish dead at 0.5 ppm)

## CCN(CCOc1ccccc1C(C)C)c1ncnc2ccccc12 [compound 27, 4-{N-ethyl-N-[2-(2-isopropylphenoxy)ethyl]amino}quinazoline]
Sphaerotheca fuliginea
  Diseased area (%): 0%

## Cc1ccc(OCCN(Cc2ccccc2)c2ncnc3ccccc23)c(C)c1 [compound 36, 4-{N-benzyl-N-[2-(2,4-dimethylphenoxy)ethyl]amino}quinazoline]
Sphaerotheca fuliginea
  Diseased area (%): 0%
guppies
  Toxicity ranking: ii (all fish dead at 10 ppm but alive at 0.5 ppm)

## CCCN(CCOc1ccccc1C)c1ncnc2ccccc12 [compound 6, 4-{N-[2-(2-methylphenoxy)ethyl]-N-propylamino}quinazoline]
Phytophthora infestans
  Diseased area (%): 0%
Sphaerotheca fuliginea
  Diseased area (%): 0%

## COc1ccccc1OCCN(C)c1ncnc2ccccc12 [compound 16, 4-{N-[2-(2-methoxyphenoxy)ethyl]-N-methylamino}quinazoline]
Phytophthora infestans
  Diseased area (%): 13%

## CC(C)c1ccccc1OCCN(c1ncnc2ccccc12)C1CCCCC1 [compound 46, 4-{N-cyclohexyl-N-[2-(2-isopropylphenoxy)ethyl]amino}quinazoline]
Phytophthora infestans
  Diseased area (%): 0%

## CCCCN(CCOc1cc(C(C)C)ccc1C)c1ncnc2ccccc12 [compound 49, 4-{N-butyl-N-[2-(5-isopropyl-2-methylphenoxy)ethyl]amino}quinazoline]
Sphaerotheca fuliginea
  Diseased area (%): 0%

## Cc1ccccc1OCCNc1ncnc2ccccc12 [Compound A, 4-{N-[2-(2-methylphenoxy)ethyl]amino}quinazoline, reference compound]
guppies
  Toxicity ranking: iii (all fish dead at 0.5 ppm)

## CCC(C)c1ccccc1OCCN(C)c1ncnc2ccccc12 (stereo not drawn) [compound 12, 4-{N-methyl-N-[2-(2-sec-butylphenoxy)ethyl]amino}quinazoline]
Cockroach larvae
  Mortality rate (%), 0.5mg test cpd/10 cockroaches/bottle: 90%
  Mortality rate (%), 1mg test cpd/10 cockroaches/bottle: 100%
Phytophthora infestans
  Diseased area (%): 15%

## Cc1cc(Cl)ccc1OCCN(c1ncnc2ccccc12)C(C)C [compound 40, 4-{N-[2-(4-chloro-2-methylphenoxy)ethyl]-N-isopropylamino}quinazoline]
Sphaerotheca fuliginea
  Diseased area (%): 0%
guppies
  Toxicity ranking: i (all fish alive at 10 ppm)

## Cc1ccccc1OCCN(c1ncnc2ccccc12)C(C)C [compound 7, 4-{N-isopropyl-N-[2-(2-methylphenoxy)ethyl]amino}quinazoline]
Sphaerotheca fuliginea
  Diseased area (%): 0%
guppies
  Toxicity ranking: ii (all fish dead at 10 ppm but alive at 0.5 ppm)

## CC(C)c1ccccc1OCCN(C)c1ncnc2ccccc12.O=C(O)C(=O)O [compound 54, 4-{N-[2-(2-isopropylphenoxy)ethyl]-N-methylamino}quinazoline oxalate]
Phytophthora infestans
  Diseased area (%): 0%

## CC(C)=CCN(CCOc1ccccc1C(C)C)c1ncnc2ccccc12 [compound 53, 4-{N-[2-(2-isopropylphenoxy)ethyl]-N-(3-methyl-2-butenyl)amino}quinazoline]
Phytophthora infestans
  Diseased area (%): 0%
guppies
  Toxicity ranking: ii (all fish dead at 10 ppm but alive at 0.5 ppm)

## Cc1cc(Cl)ccc1OCCNc1ncnc2ccccc12 [Compound D, 4-{N-[2-(4-chloro-2-methylphenoxy)ethyl]amino}quinazoline, reference compound]
guppies
  Toxicity ranking: iii (all fish dead at 0.5 ppm)

## C=CCN(CCOc1ccccc1C)c1ncnc2ccccc12 [Compound No. 8, 4-{N-allyl-N-[2-(2-methylphenoxy)ethyl]amino}quinazoline]
Phytophthora infestans
  Diseased area (%): 5%
Sphaerotheca fuliginea
  Diseased area (%): 0%
guppies
  Toxicity ranking: ii (all fish dead at 10 ppm but alive at 0.5 ppm)

## CCCN(CCOc1ccccc1C(C)C)c1ncnc2ccccc12 [compound 24, 4-{N-[2-(2-isopropylphenoxy)ethyl]-N-propylamino}quinazoline]
Sphaerotheca fuliginea
  Diseased area (%): 0%

## Cc1ccccc1OCCN(Cc1ccccc1)c1ncnc2ccccc12 [compound 3, 4-{N-benzyl-N-[2-(2-methylphenoxy)ethyl]amino}quinazoline]
Phytophthora infestans
  Diseased area (%): 11%
Sphaerotheca fuliginea
  Diseased area (%): 0%
guppies
  Toxicity ranking: i (all fish alive at 10 ppm)

## CCCCN(CCOc1ccccc1C(C)C)c1ncnc2ccccc12 [compound 28, 4{N-butyl-N-[2-(2-isopropylphenoxy)ethyl]amino}quinazoline]
Sphaerotheca fuliginea
  Diseased area (%): 0%

## CCN(CCOc1ccccc1)c1ncnc2ccccc12 [compound 5, 4-[N-ethyl-N-(2-phenoxyethyl)amino]quinazoline]
Sphaerotheca fuliginea
  Diseased area (%): 6%

## CCCN(CCOc1ccc(Cl)cc1C)c1ncnc2ccccc12 [compound 39, 4-{N-[2-(4-chloro-2-methylphenoxy)ethyl]-N-propylamino}quinazoline]
Cockroach larvae
  Mortality rate (%), 0.5mg test cpd/10 cockroaches/bottle: 85%
  Mortality rate (%), 1mg test cpd/10 cockroaches/bottle: 100%
Phytophthora infestans
  Diseased area (%): 9%
Sphaerotheca fuliginea
  Diseased area (%): 0%
guppies
  Toxicity ranking: ii (all fish dead at 10 ppm but alive at 0.5 ppm)

## CCCCN(CCOc1ccc(C)cc1C)c1ncnc2ccccc12 [compound 35, 4-{N-butyl-N-[2-(2,4-dimethylphenoxy)ethyl]amino}quinazoline]
Sphaerotheca fuliginea
  Diseased area (%): 0%
guppies
  Toxicity ranking: ii (all fish dead at 10 ppm but alive at 0.5 ppm)

## CN(CCOc1ccccc1Cl)c1ncnc2ccccc12 [compound 11, 4-{N-[2-(2-chlorophenoxy)ethyl]-N-methylamino}quinazolone]
Phytophthora infestans
  Diseased area (%): 3%

## CCCN(CCOc1ccc(C)cc1C)c1ncnc2ccccc12 [compound 33, 4-{N-[2-(2,4-dimethylphenoxy)ethyl]-N-propylamino}quinazoline]
Cockroach larvae
  Mortality rate (%), 0.5mg test cpd/10 cockroaches/bottle: 90%
  Mortality rate (%), 1mg test cpd/10 cockroaches/bottle: 100%
Sphaerotheca fuliginea
  Diseased area (%): 0%

## CN(CCOc1cccc(Cl)c1)c1ncnc2ccccc12 [compound 23, 4-{N-[2-(3-chlorophenoxy)ethyl]-N-methylamino}quinazoline]
Cockroach larvae
  Mortality rate (%), 0.5mg test cpd/10 cockroaches/bottle: 85%
  Mortality rate (%), 1mg test cpd/10 cockroaches/bottle: 100%

## Cc1cc(Cl)ccc1OCCN(Cc1ccccc1)c1ncnc2ccccc12 [compound 42, 4-{N-benzyl-N-[2-(4-chloro-2-methylphenoxy)ethyl]amino}quinazoline]
[1]
  pest or weed control at 500 ppm: 60%
  Extent of ingestion: ± to +

From patent publication US4304778A, “4-Aminoquinazoline derivatives having fungicidal, anti-insect and acaricidal properties” (Sankyo Company Limited, priority 1978, dated 1981)
